Measurements taken from patent US12544348B2, “Methods for treating APOE4/4-associated disorders” (The Regents of the University of California, priority 2018, dated 2026).

System: hippocampal cells of apoE4-KI mice
Test: Single-nucleus RNA-seq of hippocampus of apoE4-KI mice
Assay type: in vivo
Description: Single-Nucleus RNA-Seq Library Preparation and Sequencing. Twelve-month-old apoE3-KI and apoE4-KI mice received daily i.p. injections of vehicle or bumetanide (0.2 mg/kg body weight) for 60 days. […] Mouse hippocampi were acutely dissected on ice. Dissected hippocampi were placed in 2 mL Hibernate A®/B27®/GlutaMAX™ (HEB) medium in a 5 mL tube. The HEB medium was removed to a 15 mL conical and kept on ice. 2 mL of chilled lysis buffer (10 mM Tris-HCl, 10 mM NaCl, 3 mM MgCl2, and 0.1% Nonidet™ P40 Substitute in Nuclease-Free Water) were added to the tissue, and the hippocampi were homogenized by suctioning 10× through a 21G needle. After homogenization, the tissue was lysed on ice for 15 min, swirling 2-3×during this incubation period. The reserved chilled HEB media was then returned to the lysed tissue solution, and the tissue was further triturated with 5-7 passes through a 1 mL pipette. A 30 μm cell strainer (MACS SmartStrainer; Miltenyi Biotech 130-110-915) was washed with 1 mL of PBS, and the lysed tissue solution was filtered through the strainer to remove debris and clumps. Filtered nuclei were centrifuged at 500 ref for 5 min at 4° C. […]
Single-Nucleus RNA-Seq Alignment, Clustering and Cell Type Identification. […] Reads from each sample were aligned to this genome and aggregated using the 10×Cellranger pipeline with no modifications. […] Genes with detected expression in at least 3 nuclei, and nuclei with at least 200 detected genes and a maximum of 2400 were retained for analysis for a total of Nuclei with a mitochondrial percentage of less than 0.0025 were retained for future analysis for a total of 27,415 cells. Highly variable genes were calculated via the FindVariableGenes function with the parameters: x.low.cutoff=0.0123, x.high.cutoff =3, y.cutoff=0.5 for a total of 2578 highly variable genes. […] PCAElbow Plot was used to plot the cumulative standard deviations of each principal component the significance of the association of each gene with each principal component was assessed via the JackStraw and JackStrawPlot function. […]

CCCCNc1cc(C(=O)O)cc(S(N)(=O)=O)c1Oc1ccccc1 [bumetanide, 3-(butylamino)-4-phenoxy-5-sulfamoylbenzoic acid]
number of those pathways also enriched in apoE4/4-mediated AD in humans (0.2 mg/kg daily i.p. 8 weeks): 19
number of cell types (of 18 clusters) in which apoE4/4 AD signature genes were flipped (0.2 mg/kg daily i.p. 8 weeks, P<0.05 Monte Carlo): 12
number of ontological pathways enriched in at least one neuronal cell type with significant flip (p<0.005, 0.2 mg/kg daily i.p. 8 weeks): 104
